Assay [1] addresses phosphodiesterase. Kind of assay: Phosphodiesterase inhibition, cyclic AMP substrate. In kind it is biochemical. To be noted: 1 μM substrate; read-out: I50 Cyclic AMP. The method, then:
(§1) The determination of the phosphodiesterase activity was carried out according to the method of Beretz et al. (Experientia, 34,1054,1977). The method consists in measuring (3H) products resulting from incubation of (3H)-c-AMP with the phosphodiesterase preparation and with an excess of […]. An anion exchange resin was used in a batch process to remove the residual substrate. The inibition of PDE by flavonoids was studied in experiments in which the concentration of c-AMP was held constant at 1 μM.
(§2) Assays were performed with 1 μM substrate, I50 was calculated as described above.

Assay [2] deals with phosphodiesterase. Kind of assay: Phosphodiesterase inhibition, cyclic GMP substrate. In kind it is biochemical. To be noted: 1 μM substrate; read-out: I50 Cyclic GMP. The method, then:
as §1, §2

Assay [3] relates to phosphodiesterase. To be noted: stated as known; cited from earlier work.

Consider ginkgonetine, for which the IC50 on phosphodiesterase [1] came to 0.88 µM; on phosphodiesterase [2], 0.49 µM.
For `O=C(O)c1cc(=O)c2c(OCC(O)COc3cccc4oc(C(=O)O)cc(=O)c34)cccc2o1` [Cromoglycate Na, reference compound], in that order: 2000 µM and 235 µM.
For `COc1ccc(Cc2nccc3cc(OC)c(OC)cc23)cc1OC` [Papaverine, reference compound], in that order: 5 µM and 12.4 µM.
Regarding `O=c1cc(-c2ccc(O)c(-c3c(O)cc(O)c4c(=O)cc(-c5ccc(O)cc5)oc34)c2)oc2cc(O)cc(O)c12` [Amentoflavone, amentoflavone], the inhibition of phosphodiesterase result with phosphodiesterase [3] was “powerful inhibitor of phosphodiesterase”. The IC50 at phosphodiesterase [1] worked out at 0.65 µM; at phosphodiesterase [2], 0.58 µM.

The values are drawn from patent US5376371A, “Compositions for treating fat deposits in humans” (Indena S.p.A., priority 1989, dated 1994).
